Source: patent publication US20220162182A1, “KINASE INHIBITOR COMPOUNDS AND COMPOSITIONS AND METHODS OF USE” (ICAHN SCHOOL OF MEDICINE AT MOUNT SINAI, priority 2018, published 2022)
Several values for one entry are separate records, joined by “and”; a condition that tells them apart may be missing. Equal entries are not always repeated.

Columns and labels:
DYRK1A = target: T1, DYRK1A (Homo sapiens, UniProt Q13627); assay: KINOMEscan DYRK1A binding assay (DiscoverX), Kd determination; conditions: eleven serial three fold dilutions, highest concentration 60 μM, several values in a cell = repeat determinations
T1 construct: purchased DiscoverX
Method: Compounds were tested for DYRK1A binding activity at DiscoverX. DiscoverX uses proprietary KINOMEscan® Assay (Fabian et al., “A Small Molecule-kinase Interaction Map for Clinical Kinase Inhibitors,” Nat. Biotechnol. 23(3):329-336 (2005), which is hereby incorporated by reference in its entirety). Compounds were screened for DYRK1A activity at a single concentration of 3 μM in duplicates. Similarly, the dissociation constant Kd of the hit compounds from the initial screening was determined at DiscoverX using their proprietary KINOMEscan® Assay. Kd values are determined using eleven serial three fold dilutions with the highest concentration of 60 μM.

DYRK1/DYRK1A = target: T2, DYRK1/DYRK1A (Homo sapiens, UniProt Q13627); assay: DYRK1/DYRK1A IC50 assay (Reaction Biology Corp.); assay type: biochemical; conditions: DYRK1/DYRK1A assay from Reaction Biology Corp.
T2 construct: purchased Reaction Biology Corp

Compound | Kd (DYRK1A) | IC50 (DYRK1/DYRK1A) [nM]
O=C1Cc2cc(-c3cncc(NCc4ccccc4)c3)ccc2N1 [Compound 13e, 5-(5-(Benzylamino)pyridin-3-yl)indolin-2-one] | 1.3 nM and 1.9 nM | 
O=c1[nH]c2ccc(-c3cncc(NCc4ccccc4F)c3)cc2[nH]1 [Compound 30a, 5-(5-((2-Fluorobenzyl)amino)pyridin-3-yl)-1H-benzo[d]imidazol-2(3H)-one] | 1.2 nM | 
O=c1[nH]c2ccc(-c3cncc(NCc4cccc(F)c4)c3)cc2[nH]1 [Compound 30b, 5-(5-((3-Fluorobenzyl)amino)pyridin-3-yl)-1H-benzo[d]imidazol-2(3H)-one] | 1.2 nM | 
O=c1[nH]c2ccc(-c3cncc(NCc4ccccc4Cl)c3)cc2[nH]1 [Compound 30c, 5-(5-((2-Chlorobenzyl)amino)pyridin-3-yl)-1H-benzo[d]imidazol-2(3H)-one] | 1.3 nM | 
O=c1[nH]c2ccc(-c3cncc(NCc4ccc(Cl)cc4)c3)cc2[nH]1 [Compound 30e, 5-(5-((4-Chlorobenzyl)amino)pyridin-3-yl)-1H-benzo[d]imidazol-2(3H)-one] | 23 nM | 
N#Cc1cccc(CNc2cncc(-c3ccc4[nH]c(=O)[nH]c4c3)c2)c1 [Compound 30f, 3-(((5-(2-Oxo-2,3-dihydro-1H-benzo[d]imidazol-5-yl)pyridin-3-yl)amino)methyl)benzonitrile] | 5.8 nM | 
N#Cc1ccc(CNc2cncc(-c3ccc4[nH]c(=O)[nH]c4c3)c2)cc1 [Compound 30g, 4-(((5-(2-Oxo-2,3-dihydro-1H-benzo[d]imidazol-5-yl)pyridin-3-yl)amino)methyl)benzonitrile] | 31 nM | 
CC(Nc1cncc(-c2ccc3[nH]c(=O)[nH]c3c2)c1)c1ccccc1 (centres unmarked) [Compound 30j, 5-(5-((1-Phenylethyl)amino)pyridin-3-yl)-1H-benzo[d]imidazol-2(3H)-one] | 0.71 nM and 1.1 nM | 
C[C@@H](Nc1cncc(-c2ccc3[nH]c(=O)[nH]c3c2)c1)c1ccccc1 [Compound 68a, (R)-5-(5-((1-Phenylethyl)amino)pyridin-3-yl)-1H-benzo[d]imidazol-2(3H)-one] | 0.59 nM | 0.21
C[C@H](Nc1cncc(-c2ccc3[nH]c(=O)[nH]c3c2)c1)c1ccccc1 [Compound 68b, (S)-5-(5-((1-Phenylethyl)amino)pyridin-3-yl)-1H-benzo[d]imidazol-2(3H)-one] | 7.5 nM | 2.18

Continued, values first:

Kd (DYRK1A) | IC50 (DYRK1/DYRK1A) [nM] | Compound
1200 nM |  | O=c1[nH]c2ccc(-c3cncc(NCc4ccc(-c5ccccc5)cc4)c3)cc2[nH]1 [Compound 30h, 5-(5-(([1,1′-Biphenyl]-4-ylmethyl)amino)pyridin-3-yl)-1H-benzo[d]imidazol-2(3H)-one]
4.3 nM |  | O=c1[nH]c2ccc(-c3cncc(NCCc4ccccc4)c3)cc2[nH]1 [Compound 30k, 5-(5-(Phenethylamino)pyridin-3-yl)-1H-benzo[d]imidazol-2(3H)-one]
0.81 nM |  | CC(Nc1cncc(-c2ccc3[nH]c(=O)n(C)c3c2)c1)c1ccccc1 (centres unmarked) [Compound 30n, 1-Methyl-6-(5-((1-phenylethyl)amino)pyridin-3-yl)-1H-benzo[d]imidazol-2(3H)-one]
15 nM | 1.83 | O=c1[nH]c2ccc(-c3cncc(NCCCc4ccccc4)c3)cc2[nH]1 [Compound 30p, 5-(5-((3-Phenylpropyl)amino)pyridin-3-yl)-1H-benzo[d]imidazol-2(3H)-one]
0.86 nM | 0.3 | Cn1c(=O)[nH]c2ccc(-c3cncc(NCc4ccccc4F)c3)cc21 [Compound 30q, 6-(5-((2-Fluorobenzyl)amino)pyridin-3-yl)-1-methyl-1H-benzo[d]imidazol-2(3H)-one]
1.3 nM | 0.1 | Cn1c(=O)[nH]c2ccc(-c3cncc(NCc4ccccc4Cl)c3)cc21 [Compound 30r, 6-(5-((2-Chlorobenzyl)amino)pyridin-3-yl)-1-methyl-1H-benzo[d]imidazol-2(3H)-one]
1.2 nM |  | O=c1[nH]c2ccc(-c3cncc(NCc4ccccn4)c3)cc2[nH]1 [Compound 31a, 5-(5-((Pyridin-2-ylmethyl)amino)pyridin-3-yl)-1H-benzo[d]imidazol-2(3H)-one]
2.1 nM |  | O=c1[nH]c2ccc(-c3cncc(NCc4cccnc4)c3)cc2[nH]1 [Compound 31b, 5-(5-((Pyridin-3-ylmethyl)amino)pyridin-3-yl)-1H-benzo[d]imidazol-2(3H)-one]
3.9 nM |  | O=c1[nH]c2ccc(-c3cncc(NCc4ccncc4)c3)cc2[nH]1 [Compound 31c, 5-(5-((Pyridin-4-ylmethyl)amino)pyridin-3-yl)-1H-benzo[d]imidazol-2(3H)-one]
28 nM |  | O=c1[nH]c2ccc(-c3cncc(NCc4cccc5ccccc45)c3)cc2[nH]1 [Compound 31d, 5-(5-((Naphthalen-1-ylmethyl)amino)pyridin-3-yl)-1H-benzo[d]imidazol-2(3H)-one]
100 nM |  | O=c1[nH]c2ccc(-c3cncc(NCc4ccc5ccccc5c4)c3)cc2[nH]1 [Compound 31e, 5-(5-((Naphthalen-2-ylmethyl)amino)pyridin-3-yl)-1H-benzo[d]imidazol-2(3H)-one]
9.9 nM |  | NC(=O)c1cccc(CNc2cncc(-c3ccc4[nH]c(=O)[nH]c4c3)c2)c1 [Compound 33a, 3-(((5-(2-Oxo-2,3-dihydro-1H-benzo[d]imidazol-5-yl)pyridin-3-yl)amino)methyl)benzamide]
14 nM |  | NC(=O)c1ccc(CNc2cncc(-c3ccc4[nH]c(=O)[nH]c4c3)c2)cc1 [Compound 33b, 4-(((5-(2-Oxo-2,3-dihydro-1H-benzo[d]imidazol-5-yl)pyridin-3-yl)amino)methyl)benzamide]
3.2 nM | 3.98 | N[C@H](Cc1ccccc1)c1cncc(-c2ccc3[nH]c(=O)[nH]c3c2)c1 [Compound 65a, (R)-5-(5-(1-Amino-2-phenylethyl)pyridin-3-yl)-1H-benzo[d]imidazol-2(3H)-one]
15 nM | 23.2 | N[C@@H](Cc1ccccc1)c1cncc(-c2ccc3[nH]c(=O)[nH]c3c2)c1 [Compound 65b, (S)-5-(5-(1-Amino-2-phenylethyl)pyridin-3-yl)-1H-benzo[d]imidazol-2(3H)-one]
